Data from article PMC4063695, “Design of Embedded-Hybrid Antimicrobial Peptides with Enhanced Cell Selectivity and Anti-Biofilm Activity” (PLoS ONE, 2014).
No end group written: not given here.

Legend:
E. coli ATCC25922 [1] = experiment: MIC after treatment with serum, enzymes and heat; format: cell-based, Escherichia coli
Source text: (§1) E. coli ATCC25922, P. aeruginosa ATCC27853, S. aureus ATCC29213, S. epidermidis ATCC12228, S. faecalis ATCC29212 and B. subtilis CMCC63501 were obtained from the College of Veterinary Medicine, Northeast Agricultural University (Harbin, China), E. coli K88, E. coli CVCC1515 and P. aeruginosa ATCC15442 were bestowed by Prof. J.H. Wang (Gene Engineering Laboratory, Feed Research Institute, Chinese Academy of Agricultural Sciences Beijing, China) and E. coli UB1005 was kindly provided by Prof. Q.S. Qi (State Key Laboratory of Microbial Technology, Shandong University, China). […] Briefly, 50 µl of approximate 0.5–1 × 10^6 colony forming units (CFU)/ml of cells were diluted in Mueller-Hinton broth and distributed to 96-well plate, 50 µl of twofold peptides were added and the plates was incubated at 37°C for 18–24 h. The MIC values were calculated as the lowest peptide concentration that prevented visible turbidity and negative control of the pure broth without microbes. The tests were performed at least three times in duplicate.
The stability of peptides was tested in the MIC assay in different environments, including salt sensitivity, human serum, thermal stability and susceptibility to enzymes. For salt sensitivity, 0.5–1 × 10^6 CFU/ml of P. aeruginosa ATCC27853 and E. coli ATCC25922 were treated with peptides, while different salts were added to MHB, and the final concentrations of physiological salts were as follows: 150 mM NaCl, 4.5 mM KCl, 1 mM MgCl2, 6 µM NH4Cl, 8 µM ZnCl2, 4 µM FeCl3 and […] [33]. Except salt sensitivity, only E. coli ATCC25922 was treated with peptides. […] For testing peptide sensitivity to the proteolytic enzymes, the peptides were incubated in advance at 37°C for 1 h with a 1 mg/ml final concentration of the proteolytic enzymes (trypsin, pepsin, papain and proteinase K). For testing thermal stability, incubation occurred at 100°C for 1 h. After these treatments, the procedures were same as MIC assay described above.

E. coli ATCC25922 [2] = experiment: Kinetics of bacterial killing; format: cell-based, Escherichia coli; details: 1× MIC, within 30 min, 37°C, PBS; mean of three repeats
Experimental: Kinetics of the bacterial killing was measured by using E. coli ATCC25922 in logarithmic phase (10^8 CFU/mL). The above bacteria were diluted to 1/1000 with PBS, and 500 µL solutions was added with 500 µL PBS at different final concentrations (1/4, 1/2 and 1 × MIC). The solutions were incubated for 0.5 min, 1 min, 2.5 min, 5 min, 10 min, 20 min, and 40 min at 37°C. The moderately diluted samples were plated on nutrient agar plate (MHA). The bacterial colonies were counted after incubation for 18 h at 37°C. The results were determined and presented as the mean of three repeats.

S.faecalis ATCC29212 = details: S.faecalis ATCC29212; MHB, 37°C, 18-24 h; at least three times in duplicate
Source text: as §1

E. coli CVCC1515 = details: E. coli CVCC1515; MHB, 37°C, 18-24 h; at least three times in duplicate
Source text: as §1

S. pullorum C79-13 = details: S. pullorum C79-13; MHB, 37°C, 18-24 h; at least three times in duplicate
Source text: as §1

E. coli UB1005 = details: E. coli UB1005; MHB, 37°C, 18-24 h; at least three times in duplicate
Source text: as §1

E. coli K88 = details: MHB, 37°C, 18-24 h, at least three times in duplicate
Source text: as §1

P. aeruginosa variant 2 = details: P. aeruginosa variant 2, obtained by step-wise culture with gentamicin; MHB, 37°C, 18-24 h
Source text: as §1

B. subtilis CMCC63501 = details: B. subtilis CMCC63501; MHB, 37°C, 18-24 h; at least three times in duplicate
Source text: as §1

P. aeruginosa ATCC27853 = details: P. aeruginosa ATCC27853; MHB, 37°C, 18-24 h; at least three times in duplicate
Source text: as §1

S. typhimurium ATCC14028 = details: S. typhimurium ATCC14028; MHB, 37°C, 18-24 h; at least three times in duplicate
Source text: as §1

S.aureus ATCC29213 = details: S.aureus ATCC29213; MHB, 37°C, 18-24 h; at least three times in duplicate
Source text: as §1

S.epidermidis ATCC12228 = details: S.epidermidis ATCC12228; MHB, 37°C, 18-24 h; at least three times in duplicate
Source text: as §1

P. aeruginosa ATCC15442 = details: P. aeruginosa ATCC15442; MHB, 37°C, 18-24 h; at least three times in duplicate
Source text: as §1

E. coli ATCC25922 [3] = details: E. coli ATCC25922; MHB, 37°C, 18-24 h; at least three times in duplicate
Source text: as §1

P. aeruginosa variant 1 = details: P. aeruginosa variant 1, obtained by step-wise culture with ciprofloxacin hydrochloride; MHB, 37°C, 18-24 h
Source text: as §1

## RFRRLFRIRVRVLKKI-NH2 [R-FV-I16]
E. coli ATCC25922 [1]; E. coli ATCC25922, 25% human serum in MHB
  MIC, Serum 25%: 4
E. coli ATCC25922 [1]; E. coli ATCC25922, 50% human serum in MHB
  MIC, Serum 50%: 16
E. coli ATCC25922 [1]; E. coli ATCC25922, peptide incubated at 100°C for 1 h
  MIC, Heat 100°C: 1
E. coli ATCC25922 [1]; E. coli ATCC25922, peptide pre-incubated 1 h at 37°C with 1 mg/ml enzyme (method names papain)
  MIC, Enzymes Caroid: 8
E. coli ATCC25922 [1]; E. coli ATCC25922, peptide pre-incubated 1 h at 37°C with 1 mg/ml pepsin
  MIC, Enzymes Pepsin: 8
E. coli ATCC25922 [1]; E. coli ATCC25922, peptide pre-incubated 1 h at 37°C with 1 mg/ml proteinase K
  MIC, Enzymes Proteinase K: >128
E. coli ATCC25922 [1]; E. coli ATCC25922, peptide pre-incubated 1 h at 37°C with 1 mg/ml trypsin
  MIC, Enzymes Trypsin: 4
E. coli ATCC25922 [1]; E. coli, incubation at 100°C for approximately 1 h
  antimicrobial activity after heat (in words): remained stable
E. coli ATCC25922 [2]
  reduction of colony count: 99%
S.faecalis ATCC29212
  MIC: 1 µM
E. coli CVCC1515
  MIC: 2 µM
S. pullorum C79-13
  MIC: 1 µM
E. coli UB1005
  MIC: 4 µM
E. coli K88
  MIC: 2 µM
P. aeruginosa variant 2
  MIC: 4 µM
B. subtilis CMCC63501
  MIC: 1 µM
P. aeruginosa ATCC27853
  MIC: 4 µM
S. typhimurium ATCC14028
  MIC: 2 µM
S.aureus ATCC29213
  MIC: 2 µM
S.epidermidis ATCC12228
  MIC: 4 µM
P. aeruginosa ATCC15442
  MIC: 2 µM
E. coli ATCC25922 [3]
  MIC: 1 µM
P. aeruginosa variant 1
  MIC: 2 µM
